According to patent US9446039B2, “Aminoheteroaryl compounds as MTH1 inhibitors” (CEMM—FORSCHUNGSZENTRUM FÜR MOLEKULARE MEDIZIN GMBH, priority 2012, dated 2016):

Legend:
Format in all cases: binding
[1] = biological target: T1, SW480 colon carcinoma cells lysate proteins (Homo sapiens, UniProt O00232); conditions: PreyGene PSMD12
T1 sequence (O00232 1-456): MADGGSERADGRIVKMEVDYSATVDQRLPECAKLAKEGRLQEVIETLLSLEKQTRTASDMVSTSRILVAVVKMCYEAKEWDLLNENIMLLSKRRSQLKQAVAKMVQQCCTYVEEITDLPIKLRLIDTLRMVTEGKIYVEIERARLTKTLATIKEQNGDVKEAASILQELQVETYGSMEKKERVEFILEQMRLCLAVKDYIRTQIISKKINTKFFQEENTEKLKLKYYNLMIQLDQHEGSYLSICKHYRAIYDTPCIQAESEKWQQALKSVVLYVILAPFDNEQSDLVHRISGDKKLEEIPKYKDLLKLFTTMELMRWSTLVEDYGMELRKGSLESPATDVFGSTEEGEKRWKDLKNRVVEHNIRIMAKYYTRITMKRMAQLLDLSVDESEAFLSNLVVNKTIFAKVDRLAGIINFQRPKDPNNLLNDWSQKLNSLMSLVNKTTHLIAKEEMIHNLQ

[2] = biological target: SW480 colon carcinoma cells lysate proteins (Homo sapiens, UniProt P15559); conditions: PreyGene NQO1
Sequence of SW480 colon carcinoma cells lysate proteins (Homo sapiens, UniProt P15559) (P15559 whole entry): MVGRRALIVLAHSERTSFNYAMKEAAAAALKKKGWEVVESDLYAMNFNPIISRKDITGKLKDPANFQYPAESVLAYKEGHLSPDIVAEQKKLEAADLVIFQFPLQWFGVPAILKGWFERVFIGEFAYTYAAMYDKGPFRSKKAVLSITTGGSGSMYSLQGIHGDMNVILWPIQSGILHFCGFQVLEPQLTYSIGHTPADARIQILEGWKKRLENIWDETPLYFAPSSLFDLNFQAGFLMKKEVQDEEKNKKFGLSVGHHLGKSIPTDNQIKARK

[3] = biological target: SW480 colon carcinoma cells lysate proteins (Homo sapiens, UniProt P18669); conditions: PreyGene PGAM1
Sequence of SW480 colon carcinoma cells lysate proteins (Homo sapiens, UniProt P18669) (P18669 whole entry): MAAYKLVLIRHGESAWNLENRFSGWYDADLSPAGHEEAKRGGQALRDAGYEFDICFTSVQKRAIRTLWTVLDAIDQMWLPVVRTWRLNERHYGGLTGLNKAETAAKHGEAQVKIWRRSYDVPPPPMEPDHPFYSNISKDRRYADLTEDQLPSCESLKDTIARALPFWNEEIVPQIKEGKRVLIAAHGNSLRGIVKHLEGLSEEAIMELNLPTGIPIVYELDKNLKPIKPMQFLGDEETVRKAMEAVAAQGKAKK

[4] = biological target: SW480 colon carcinoma cells lysate proteins (Homo sapiens, UniProt P23528); conditions: PreyGene CFL1
Sequence of SW480 colon carcinoma cells lysate proteins (Homo sapiens, UniProt P23528) (P23528 whole entry): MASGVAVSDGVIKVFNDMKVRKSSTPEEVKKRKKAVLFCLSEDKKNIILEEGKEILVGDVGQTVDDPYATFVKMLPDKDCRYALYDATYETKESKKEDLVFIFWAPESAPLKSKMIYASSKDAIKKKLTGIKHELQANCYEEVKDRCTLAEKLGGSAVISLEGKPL

[5] = biological target: T2, SW480 colon carcinoma cells lysate proteins (Homo sapiens, UniProt P29373); conditions: PreyGene CRABP2
T2 sequence (P29373 1-138): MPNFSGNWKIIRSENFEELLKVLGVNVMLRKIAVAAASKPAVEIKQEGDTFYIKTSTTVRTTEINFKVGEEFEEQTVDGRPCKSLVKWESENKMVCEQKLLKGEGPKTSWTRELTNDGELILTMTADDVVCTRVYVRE

[6] = biological target: T3, SW480 colon carcinoma cells lysate proteins (Homo sapiens, UniProt P52565); conditions: PreyGene ARHGDIA
T3 sequence (P52565 1-204): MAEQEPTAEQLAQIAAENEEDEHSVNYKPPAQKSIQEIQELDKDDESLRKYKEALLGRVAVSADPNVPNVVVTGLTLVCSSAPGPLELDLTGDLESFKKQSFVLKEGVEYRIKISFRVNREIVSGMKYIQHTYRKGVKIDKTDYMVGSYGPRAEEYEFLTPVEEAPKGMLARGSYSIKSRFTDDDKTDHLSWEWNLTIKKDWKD

[7] = biological target: SW480 colon carcinoma cells lysate proteins (Homo sapiens, UniProt P68371); conditions: PreyGene TUBB4B; SW480 cells
Sequence of SW480 colon carcinoma cells lysate proteins (Homo sapiens, UniProt P68371) (P68371 whole entry): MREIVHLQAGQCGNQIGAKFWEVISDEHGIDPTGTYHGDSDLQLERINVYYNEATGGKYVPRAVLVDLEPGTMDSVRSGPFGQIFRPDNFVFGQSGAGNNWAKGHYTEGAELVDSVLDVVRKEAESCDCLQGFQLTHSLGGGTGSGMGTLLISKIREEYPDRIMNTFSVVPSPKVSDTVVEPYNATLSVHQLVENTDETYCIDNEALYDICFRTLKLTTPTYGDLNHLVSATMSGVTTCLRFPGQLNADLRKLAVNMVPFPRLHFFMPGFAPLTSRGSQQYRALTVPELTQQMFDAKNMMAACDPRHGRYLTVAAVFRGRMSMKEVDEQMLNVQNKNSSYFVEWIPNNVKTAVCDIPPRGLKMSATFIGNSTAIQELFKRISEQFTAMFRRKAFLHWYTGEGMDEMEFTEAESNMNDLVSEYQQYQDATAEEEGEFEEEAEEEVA

[8] = biological target: SW480 colon carcinoma cells lysate proteins (Homo sapiens, UniProt Q14974); conditions: PreyGene KPNB1
Sequence of SW480 colon carcinoma cells lysate proteins (Homo sapiens, UniProt Q14974) (Q14974 whole entry): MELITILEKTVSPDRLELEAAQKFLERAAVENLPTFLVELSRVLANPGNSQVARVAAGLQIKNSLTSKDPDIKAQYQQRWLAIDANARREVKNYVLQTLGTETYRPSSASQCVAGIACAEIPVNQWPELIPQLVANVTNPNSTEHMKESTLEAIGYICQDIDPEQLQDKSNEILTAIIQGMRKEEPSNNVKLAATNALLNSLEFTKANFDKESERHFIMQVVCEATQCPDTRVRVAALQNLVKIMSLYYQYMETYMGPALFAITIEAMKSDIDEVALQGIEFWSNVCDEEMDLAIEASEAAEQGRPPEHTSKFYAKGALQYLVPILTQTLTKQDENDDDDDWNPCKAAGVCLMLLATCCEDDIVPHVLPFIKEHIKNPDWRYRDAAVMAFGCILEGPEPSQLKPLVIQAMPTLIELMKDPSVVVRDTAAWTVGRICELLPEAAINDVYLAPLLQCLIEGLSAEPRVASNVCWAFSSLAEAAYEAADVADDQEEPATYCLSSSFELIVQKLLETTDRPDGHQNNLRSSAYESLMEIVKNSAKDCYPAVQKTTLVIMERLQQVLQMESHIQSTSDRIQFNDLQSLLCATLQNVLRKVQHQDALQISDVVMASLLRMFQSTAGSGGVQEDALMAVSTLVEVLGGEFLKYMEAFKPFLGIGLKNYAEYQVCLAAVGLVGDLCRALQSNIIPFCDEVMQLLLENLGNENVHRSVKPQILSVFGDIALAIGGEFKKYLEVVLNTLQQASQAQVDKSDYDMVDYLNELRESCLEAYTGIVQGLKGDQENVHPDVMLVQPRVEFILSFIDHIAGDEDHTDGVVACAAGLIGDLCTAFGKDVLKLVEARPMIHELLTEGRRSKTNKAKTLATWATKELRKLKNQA

[9] = biological target: SW480 colon carcinoma cells lysate proteins (Homo sapiens, UniProt Q15056); conditions: PreyGene EIF4H
[10] = biological target: SW480 colon carcinoma cells lysate proteins (Homo sapiens, UniProt Q92688); conditions: PreyGene ANP32B
Sequence of SW480 colon carcinoma cells lysate proteins (Homo sapiens, UniProt Q92688) (Q92688 whole entry): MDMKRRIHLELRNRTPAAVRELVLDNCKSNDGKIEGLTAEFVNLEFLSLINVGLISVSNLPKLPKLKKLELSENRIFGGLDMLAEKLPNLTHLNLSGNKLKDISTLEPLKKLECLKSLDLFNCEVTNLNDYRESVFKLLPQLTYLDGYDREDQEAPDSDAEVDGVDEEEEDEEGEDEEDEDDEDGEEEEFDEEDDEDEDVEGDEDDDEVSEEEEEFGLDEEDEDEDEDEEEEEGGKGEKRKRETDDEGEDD

[11] = biological target: SW480 colon carcinoma cells lysate proteins (Homo sapiens, UniProt Q9NZI8); conditions: PreyGene IGF2BP1; SW480 cells
Sequence of SW480 colon carcinoma cells lysate proteins (Homo sapiens, UniProt Q9NZI8) (Q9NZI8 whole entry): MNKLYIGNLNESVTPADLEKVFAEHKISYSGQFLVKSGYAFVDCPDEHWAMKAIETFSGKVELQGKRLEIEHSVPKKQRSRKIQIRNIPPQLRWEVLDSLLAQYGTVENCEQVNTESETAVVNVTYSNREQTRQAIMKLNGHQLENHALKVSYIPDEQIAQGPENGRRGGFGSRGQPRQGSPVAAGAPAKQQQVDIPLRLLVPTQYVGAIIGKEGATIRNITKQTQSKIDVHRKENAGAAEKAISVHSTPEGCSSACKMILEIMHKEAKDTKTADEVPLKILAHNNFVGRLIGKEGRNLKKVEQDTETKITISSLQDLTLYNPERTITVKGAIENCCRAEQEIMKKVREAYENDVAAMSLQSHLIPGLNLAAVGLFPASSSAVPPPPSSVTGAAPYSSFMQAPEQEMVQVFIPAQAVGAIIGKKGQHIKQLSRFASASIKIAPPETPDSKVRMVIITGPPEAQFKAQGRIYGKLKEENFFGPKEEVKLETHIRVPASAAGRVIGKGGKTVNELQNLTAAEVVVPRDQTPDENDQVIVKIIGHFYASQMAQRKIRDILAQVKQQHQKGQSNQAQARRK

[12] = biological target: SW480 colon carcinoma cells lysate proteins (Homo sapiens, UniProt Q9UBR2); conditions: PreyGene CTSZ
Sequence of SW480 colon carcinoma cells lysate proteins (Homo sapiens, UniProt Q9UBR2) (Q9UBR2 62-303): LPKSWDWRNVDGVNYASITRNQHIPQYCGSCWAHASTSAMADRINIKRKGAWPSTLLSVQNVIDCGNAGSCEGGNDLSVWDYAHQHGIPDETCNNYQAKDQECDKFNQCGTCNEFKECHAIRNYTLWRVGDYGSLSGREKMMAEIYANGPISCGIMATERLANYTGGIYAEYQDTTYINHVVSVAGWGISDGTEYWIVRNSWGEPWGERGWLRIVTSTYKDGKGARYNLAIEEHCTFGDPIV

[13] = biological target: T4, SW480 colon carcinoma cells lysate proteins (Homo sapiens, UniProt Q9Y2B0); conditions: PreyGene CNPY2; SW480 cells
T4 sequence (Q9Y2B0 21-182): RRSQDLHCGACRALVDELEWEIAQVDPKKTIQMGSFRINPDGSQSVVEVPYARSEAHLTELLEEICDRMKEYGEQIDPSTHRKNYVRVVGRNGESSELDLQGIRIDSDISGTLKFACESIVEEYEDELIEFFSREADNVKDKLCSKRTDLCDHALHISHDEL

In the case of `C[C@H](Oc1cc(-c2cnn(C3CCNCC3)c2)cnc1N)c1c(Cl)ccc(F)c1Cl` [(5)-crizotinib], the AvgP [1] is reported as 0.35, the “SC.Exp. 1-1” value [1] is reported as 2 and the “SC.Exp. 1-2” value [1] is reported as 2. The “SC.Exp. 2-1” value [1] was 0, the “SC.Exp. 2-2” value [1] was 0 and the “Sum (SC.Exp.)” value [1] was 4. For the same molecule, the AvgP [2] was 0.3104, the “SC.Exp. 1-1” value [2] was 2 and the “SC.Exp. 1-2” value [2] was 1. For the same molecule, the “SC.Exp. 2-1” value [2] was 0, the “SC.Exp. 2-2” value [2] was 0 and the “Sum (SC.Exp.)” value [2] was 3. The AvgP [3] was 0.4721, the “SC.Exp. 1-1” value [3] was 6 and the “SC.Exp. 1-2” value [3] was 6. For the same molecule, the “SC.Exp. 2-1” value [3] was 0, the “SC.Exp. 2-2” value [3] was 0 and the “Sum (SC.Exp.)” value [3] was 12. The AvgP [4] was 0.3871, the “SC.Exp. 1-1” value [4] was 12 and the “SC.Exp. 1-2” value [4] was 11. The “SC.Exp. 2-1” value [4] was 1, the “SC.Exp. 2-2” value [4] was 0 and the “Sum (SC.Exp.)” value [4] was 24. The AvgP [5] was 0.2533, the “SC.Exp. 1-1” value [5] was 4 and the “SC.Exp. 1-2” value [5] was 1. The “SC.Exp. 2-1” value [5] was 0, the “SC.Exp. 2-2” value [5] was 0 and the “Sum (SC.Exp.)” value [5] was 5. For the same molecule, the AvgP [6] was 0.4128, the “SC.Exp. 1-1” value [6] was 2 and the “SC.Exp. 1-2” value [6] was 3. The “SC.Exp. 2-1” value [6] was 0, the “SC.Exp. 2-2” value [6] was 0 and the “Sum (SC.Exp.)” value [6] was 5. The AvgP [7] was 0, the “SC.Exp. 1-1” value [7] was 8 and the “SC.Exp. 1-2” value [7] was 8. For the same molecule, the “SC.Exp. 2-1” value [7] was 2, the “SC.Exp. 2-2” value [7] was 4 and the “SC.Exp. Sum” value [7] was 22. For the same molecule, the AvgP [8] was 0.5773, the “SC.Exp. 1-1” value [8] was 7 and the “SC.Exp. 1-2” value [8] was 6. The “SC.Exp. 2-1” value [8] was 1, the “SC.Exp. 2-2” value [8] was 0 and the “Sum (SC.Exp.)” value [8] was 14. The AvgP [9] was 0.4095, the “SC.Exp. 1-1” value [9] was 3 and the “SC.Exp. 1-2” value [9] was 2. The “SC.Exp. 2-1” value [9] was 0, the “SC.Exp. 2-2” value [9] was 0 and the “Sum (SC.Exp.)” value [9] was 5. The AvgP [10] was 0.5116, the “SC.Exp. 1-1” value [10] was 0 and the “SC.Exp. 1-2” value [10] was 1. For the same molecule, the “SC.Exp. 2-1” value [10] was 4, the “SC.Exp. 2-2” value [10] was 4 and the “Sum (SC.Exp.)” value [10] was 9. For the same molecule, the AvgP [11] was 0, the “SC.Exp. 1-1” value [11] was 4 and the “SC.Exp. 1-2” value [11] was 8. For the same molecule, the “SC.Exp. 2-1” value [11] was 4, the “SC.Exp. 2-2” value [11] was 6 and the “SC.Exp. Sum” value [11] was 22. For the same molecule, the AvgP [12] was 0.3217, the “SC.Exp. 1-1” value [12] was 2 and the “SC.Exp. 1-2” value [12] was 2. The “SC.Exp. 2-1” value [12] was 0, the “SC.Exp. 2-2” value [12] was 0 and the “Sum (SC.Exp.)” value [12] was 4. For the same molecule, the AvgP [13] was 0, the “SC.Exp. 1-1” value [13] was 1 and the “SC.Exp. 1-2” value [13] was 0. The “SC.Exp. 2-1” value [13] was 0, the “SC.Exp. 2-2” value [13] was 0 and the “SC.Exp. Sum” value [13] was 1.
